Experimental findings from publication PMC13183420, “Sustained Action of Imapextide, A Glucagon-Like Peptide-1 Receptor Antagonist, in Healthy Volunteers” (The Journal of Clinical Endocrinology and Metabolism, 2025) are described below.

The subject of series [1] is healthy volunteers. The series can be described thus: Safety and tolerability, drug-drug interaction part. In kind it is in vivo, human. Particulars: n = 14; for TRAE, Acetaminophen-related: acetaminophen 1000 mg; for TRAE, Rosuvastatin-related: rosuvastatin 10 mg. As for the experimental part:
This phase 1, randomized, double-blind, placebo-controlled study (NCT06036784) enrolled healthy adults (aged 18-65 years) with a body mass index of 18 to 30 kg/m^2, stable body weight for 3 months or longer, and without diabetes. Potential participants were ineligible if they had type 1 or type 2 diabetes or prediabetes (based on medical history, relevant concomitant medications [including oral or injectable antidiabetic medications], fasting plasma glucose concentrations ≥100 mg/dL or glycated hemoglobin concentrations ≥5.7% [American Diabetes Association thresholds for diabetes and prediabetes ([18])]).
(§1) The DDI portion of the study included 1 cohort of 14 HVs and consisted of 2 study periods. […] Blood samples were also collected to measure clearance of the endogenous biomarker for hepatic OATP inhibition, coproporphyrin-I (CP-I), to assess potential inhibition of OATP1B1/3 by imapextide. […] The primary objective of the DDI portion was to evaluate the PK of rosuvastatin and acetaminophen in the presence and absence of imapextide.
The primary objective of the SAD and MAD portions of the study was to evaluate the safety and tolerability of imapextide; safety was also evaluated in the DDI portion. Safety assessments included incidence and severity of treatment-emergent adverse events (TEAEs), changes in physical examination findings, clinical laboratory abnormalities (serum chemistry, hematology, urinalysis, and coagulation; abnormalities were defined as deviation from the laboratory normal range), and potential effect on vital sign measures. All blood samples for safety analyses were collected after an overnight fast (≥8 hours). If present, data on ISRs were collected using a dedicated form and rated on severity according to the US Food and Drug Administration toxicity scale for vaccines (for details on severity grading, see Supplementary Table S1) ([20], [21]). All ISRs were evaluated, regardless of whether they were reported as TEAEs by the investigator. In the 30-mg-R cohort, participants with ISRs grade 2 or worse underwent a dermatology consultation, including a potential skin biopsy at the discretion of the dermatologist.

The subject of series [2] is OATP1B1/OATP1B3. As to the kind of experiment: Drug-drug interaction: rosuvastatin PK in presence or absence of imapextide. The format is in vivo, human. Particulars: plasma, n = 14, statistic in brackets not given.
Excerpt: as §1
Imapextide was also examined as a perpetrator of OATP1B1/3, which would affect the hepatic clearance of rosuvastatin and CP-I. PK assessments for rosuvastatin included Cmax, tmax, AUC from 0 to 72 hours (AUC0-72), and AUCinf. PK assessments for CP-I included Cmax, tmax, AUC0-72, and AUC from 0 to 108 hours (AUC0-108).

[3] abbreviates: DDI Period 2 (RBX + APAP + Imapextide 45 mg).
Where [4] appears, read: Period 1 (RBX 10 mg + APAP 1000 mg), no imapextide.
[5] abbreviates: Period 2 (RBX 10 mg + APAP 1000 mg + imapextide 45 mg given 2 days before).

Turning to `CC(=O)Nc1ccc(O)cc1` [Acetaminophen, acetaminophen], the “TRAE, Acetaminophen-related” value in series [1] (DDI Period 1 (RBX + APAP)) and in series [1] (setting [3]) was 0 n (%) throughout.
Consider `CC(C)c1nc(N(C)S(C)(=O)=O)nc(-c2ccc(F)cc2)c1/C=C/[C@@H](O)C[C@@H](O)CC(=O)O` [Rosuvastatin, rosuvastatin], for which, in series [1] (DDI Period 1 (RBX + APAP)), the “TRAE, Rosuvastatin-related” value is listed as 0 n (%). In series [1] (setting [3]), the “TRAE, Rosuvastatin-related” value is 0 n (%). Besides, in series [2] (setting [4]), the AUC0-72 is recorded as 27,660 (56.1) h*pg/mL, the AUC0-inf is given as 36,090 (50.3) h*pg/mL, the Cmax was 2307 (85.1) pg/mL and the tmax was 2.80 (84.7) h. Moreover, in series [2] (setting [5]), the AUC0-72 is given as 31,730 (48.3) h*pg/mL, the AUC0-inf is 32,490 (49.4) h*pg/mL, the Cmax is listed as 2962 (61.9) pg/mL and the tmax is 2.72 (38.1) h.
